Assay results reported in ChEMBL document CHEMBL4507311, “Data for DCP probe A-1155463” (2021).
pKi: −log10 of the molar value.

Experiments:
[1] = biological target: Sigma non-opioid intracellular receptor 1 (Homo sapiens, UniProt Q99720); test: GPCRScan assay: inhibition of Sigma 1; parameters: radioligand conc. used [nm] 4.0 – 5.0, parental cells HEKT
[2] = tested on: Tyrosine-protein kinase ABL1 (Homo sapiens), P00519 [H396P]; details: Compound concentration 1000.0 nM
[3] = tested on: Tyrosine-protein kinase ABL1 (Homo sapiens), P00519 [Q252H]; details: Compound concentration 1000.0 nM
[4] = tested on: Tyrosine-protein kinase ABL1 (Homo sapiens), P00519 [T315I]; details: Compound concentration 1000.0 nM
[5] = biological target: NUAK family SNF1-like kinase 1 (Homo sapiens) (UniProt O60285); details: Compound concentration 1000.0 nM
[6] = biological target: Cyclin-dependent kinase 3 (Homo sapiens) (UniProt Q00526); details: Compound concentration 1000.0 nM
[7] = biological target: Casein kinase II subunit alpha (Homo sapiens) (UniProt P68400); details: Compound concentration 1000.0 nM
[8] = tested on: Epidermal growth factor receptor (Homo sapiens), P00533 [G719S]; details: Compound concentration 1000.0 nM
[9] = biological target: Ephrin type-A receptor 5 (Homo sapiens) (UniProt P54756); details: Compound concentration 1000.0 nM
[10] = biological target: Vascular endothelial growth factor receptor 3 (Homo sapiens) (UniProt P35916); details: Compound concentration 1000.0 nM
[11] = biological target: Cyclin-G-associated kinase (Homo sapiens) (UniProt O14976); details: Compound concentration 1000.0 nM
[12] = biological target: Rhodopsin kinase GRK7 (Homo sapiens) (UniProt Q8WTQ7); details: Compound concentration 1000.0 nM
[13] = tested on: Mast/stem cell growth factor receptor Kit (Homo sapiens), P10721 [V559D,V654A]; details: Compound concentration 1000.0 nM
[14] = biological target: Mitogen-activated protein kinase kinase kinase 2 (Homo sapiens) (UniProt Q9Y2U5); details: Compound concentration 1000.0 nM
[15] = biological target: MAP kinase-interacting serine/threonine-protein kinase 1 (Homo sapiens) (UniProt Q9BUB5); details: Compound concentration 1000.0 nM
[16] = biological target: Serine/threonine-protein kinase 4 (Homo sapiens) (UniProt Q13043); details: Compound concentration 1000.0 nM
[17] = biological target: Serine/threonine-protein kinase 24 (Homo sapiens) (UniProt Q9Y6E0); details: Compound concentration 1000.0 nM
[18] = biological target: Calcium-dependent protein kinase 1 (Plasmodium falciparum) (UniProt P62344); details: Compound concentration 1000.0 nM
[19] = biological target: Serine/threonine-protein kinase PLK4 (Homo sapiens) (UniProt O00444); details: Compound concentration 1000.0 nM
[20] = biological target: Serine/threonine-protein kinase D2 (Homo sapiens) (UniProt Q9BZL6); details: Compound concentration 1000.0 nM
[21] = biological target: cGMP-dependent protein kinase 1 (Homo sapiens) (UniProt Q13976); details: Compound concentration 1000.0 nM
[22] = biological target: Interferon-induced, double-stranded RNA-activated protein kinase (Homo sapiens) (UniProt P19525); details: Compound concentration 1000.0 nM
[23] = tested on: Proto-oncogene tyrosine-protein kinase receptor Ret (Homo sapiens), P07949 [M918T]; details: Compound concentration 1000.0 nM
[24] = biological target: Ribosomal protein S6 kinase alpha-4 (Homo sapiens) (UniProt O75676); details: Compound concentration 1000.0 nM
[25] = biological target: Ribosomal protein S6 kinase alpha-5 (Homo sapiens) (UniProt O75582); details: Compound concentration 1000.0 nM
[26] = biological target: Serine/threonine-protein kinase 33 (Homo sapiens) (UniProt Q9BYT3); details: Compound concentration 1000.0 nM
[27] = biological target: Serine/threonine-protein kinase ULK3 (Homo sapiens) (UniProt Q6PHR2); details: Compound concentration 1000.0 nM
[28] = biological target: Wee1-like protein kinase (Homo sapiens) (UniProt P30291); details: Compound concentration 1000.0 nM
[29] = biological target: 5-hydroxytryptamine receptor 1D (Homo sapiens) (UniProt P28221); details: Compound concentration 10.0 uM
[30] = biological target: D(1B) dopamine receptor (Homo sapiens) (UniProt P21918); details: Compound concentration 10.0 uM
[31] = biological target: T1, Alpha-2B adrenergic receptor (Homo sapiens) (UniProt P18089); details: Compound concentration 10.0 uM
T1 sequence (whole entry): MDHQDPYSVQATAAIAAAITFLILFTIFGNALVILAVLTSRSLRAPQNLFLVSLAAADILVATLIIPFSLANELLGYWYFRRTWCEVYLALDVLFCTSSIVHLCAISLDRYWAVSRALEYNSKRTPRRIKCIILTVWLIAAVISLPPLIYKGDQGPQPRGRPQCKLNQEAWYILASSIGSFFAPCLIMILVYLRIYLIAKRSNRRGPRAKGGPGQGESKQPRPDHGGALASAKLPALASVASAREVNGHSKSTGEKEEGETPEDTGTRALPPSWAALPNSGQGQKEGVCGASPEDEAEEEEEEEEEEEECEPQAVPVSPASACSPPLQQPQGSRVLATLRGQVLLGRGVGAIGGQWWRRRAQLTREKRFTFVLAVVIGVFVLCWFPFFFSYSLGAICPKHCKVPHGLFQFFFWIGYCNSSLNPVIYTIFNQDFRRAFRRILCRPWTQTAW

[32] = biological target: T2, Muscarinic acetylcholine receptor M5 (Homo sapiens) (UniProt P08912); details: Compound concentration 10.0 uM
T2 sequence (whole entry): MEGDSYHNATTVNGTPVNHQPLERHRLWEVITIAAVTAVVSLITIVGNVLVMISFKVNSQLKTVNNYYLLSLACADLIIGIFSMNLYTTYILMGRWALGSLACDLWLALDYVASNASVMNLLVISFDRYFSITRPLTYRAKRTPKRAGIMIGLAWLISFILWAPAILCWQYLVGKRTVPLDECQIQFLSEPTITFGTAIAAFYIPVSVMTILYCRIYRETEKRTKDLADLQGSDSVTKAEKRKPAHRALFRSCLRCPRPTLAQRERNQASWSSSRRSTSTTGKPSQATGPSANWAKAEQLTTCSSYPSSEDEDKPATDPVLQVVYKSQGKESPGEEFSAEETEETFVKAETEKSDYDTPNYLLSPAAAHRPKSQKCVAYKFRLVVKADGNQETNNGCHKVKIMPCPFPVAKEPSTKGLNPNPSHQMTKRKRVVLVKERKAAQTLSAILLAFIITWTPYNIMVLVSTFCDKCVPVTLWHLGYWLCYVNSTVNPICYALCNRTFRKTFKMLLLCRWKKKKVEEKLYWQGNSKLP

Chain of Mitogen-activated protein kinase kinase kinase 2 (Homo sapiens) (Q9Y2U5 whole entry): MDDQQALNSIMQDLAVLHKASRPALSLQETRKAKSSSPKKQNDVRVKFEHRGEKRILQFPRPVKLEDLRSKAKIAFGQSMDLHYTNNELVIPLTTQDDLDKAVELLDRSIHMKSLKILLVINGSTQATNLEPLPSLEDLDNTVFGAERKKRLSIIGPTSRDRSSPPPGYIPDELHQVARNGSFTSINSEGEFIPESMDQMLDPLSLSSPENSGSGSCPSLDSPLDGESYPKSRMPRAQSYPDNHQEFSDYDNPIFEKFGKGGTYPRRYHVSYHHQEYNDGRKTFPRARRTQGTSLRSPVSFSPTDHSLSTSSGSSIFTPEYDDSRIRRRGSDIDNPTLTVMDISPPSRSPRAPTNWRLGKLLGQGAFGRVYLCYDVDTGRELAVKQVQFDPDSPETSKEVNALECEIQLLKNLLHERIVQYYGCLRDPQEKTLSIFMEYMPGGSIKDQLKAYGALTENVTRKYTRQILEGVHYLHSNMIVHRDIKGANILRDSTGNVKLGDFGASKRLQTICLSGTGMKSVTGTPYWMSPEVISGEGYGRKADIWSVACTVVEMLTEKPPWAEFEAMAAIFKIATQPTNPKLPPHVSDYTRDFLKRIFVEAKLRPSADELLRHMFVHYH
Chain of Interferon-induced, double-stranded RNA-activated protein kinase (Homo sapiens) (P19525 whole entry): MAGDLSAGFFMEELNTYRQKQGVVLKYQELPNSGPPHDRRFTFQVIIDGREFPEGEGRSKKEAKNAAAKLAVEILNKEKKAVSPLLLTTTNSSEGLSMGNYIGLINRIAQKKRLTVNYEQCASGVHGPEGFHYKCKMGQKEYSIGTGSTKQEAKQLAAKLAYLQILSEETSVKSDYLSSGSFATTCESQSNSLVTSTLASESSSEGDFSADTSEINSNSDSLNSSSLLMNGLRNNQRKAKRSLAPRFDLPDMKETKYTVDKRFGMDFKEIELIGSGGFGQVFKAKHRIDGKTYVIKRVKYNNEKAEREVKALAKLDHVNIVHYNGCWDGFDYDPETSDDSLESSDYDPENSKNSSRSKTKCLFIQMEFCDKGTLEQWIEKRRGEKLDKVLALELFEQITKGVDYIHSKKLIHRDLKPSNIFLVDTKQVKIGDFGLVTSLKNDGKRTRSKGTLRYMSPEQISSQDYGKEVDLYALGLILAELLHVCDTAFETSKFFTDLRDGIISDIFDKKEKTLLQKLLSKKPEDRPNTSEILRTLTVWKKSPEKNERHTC
Chain of Cyclin-G-associated kinase (Homo sapiens) (O14976 whole entry): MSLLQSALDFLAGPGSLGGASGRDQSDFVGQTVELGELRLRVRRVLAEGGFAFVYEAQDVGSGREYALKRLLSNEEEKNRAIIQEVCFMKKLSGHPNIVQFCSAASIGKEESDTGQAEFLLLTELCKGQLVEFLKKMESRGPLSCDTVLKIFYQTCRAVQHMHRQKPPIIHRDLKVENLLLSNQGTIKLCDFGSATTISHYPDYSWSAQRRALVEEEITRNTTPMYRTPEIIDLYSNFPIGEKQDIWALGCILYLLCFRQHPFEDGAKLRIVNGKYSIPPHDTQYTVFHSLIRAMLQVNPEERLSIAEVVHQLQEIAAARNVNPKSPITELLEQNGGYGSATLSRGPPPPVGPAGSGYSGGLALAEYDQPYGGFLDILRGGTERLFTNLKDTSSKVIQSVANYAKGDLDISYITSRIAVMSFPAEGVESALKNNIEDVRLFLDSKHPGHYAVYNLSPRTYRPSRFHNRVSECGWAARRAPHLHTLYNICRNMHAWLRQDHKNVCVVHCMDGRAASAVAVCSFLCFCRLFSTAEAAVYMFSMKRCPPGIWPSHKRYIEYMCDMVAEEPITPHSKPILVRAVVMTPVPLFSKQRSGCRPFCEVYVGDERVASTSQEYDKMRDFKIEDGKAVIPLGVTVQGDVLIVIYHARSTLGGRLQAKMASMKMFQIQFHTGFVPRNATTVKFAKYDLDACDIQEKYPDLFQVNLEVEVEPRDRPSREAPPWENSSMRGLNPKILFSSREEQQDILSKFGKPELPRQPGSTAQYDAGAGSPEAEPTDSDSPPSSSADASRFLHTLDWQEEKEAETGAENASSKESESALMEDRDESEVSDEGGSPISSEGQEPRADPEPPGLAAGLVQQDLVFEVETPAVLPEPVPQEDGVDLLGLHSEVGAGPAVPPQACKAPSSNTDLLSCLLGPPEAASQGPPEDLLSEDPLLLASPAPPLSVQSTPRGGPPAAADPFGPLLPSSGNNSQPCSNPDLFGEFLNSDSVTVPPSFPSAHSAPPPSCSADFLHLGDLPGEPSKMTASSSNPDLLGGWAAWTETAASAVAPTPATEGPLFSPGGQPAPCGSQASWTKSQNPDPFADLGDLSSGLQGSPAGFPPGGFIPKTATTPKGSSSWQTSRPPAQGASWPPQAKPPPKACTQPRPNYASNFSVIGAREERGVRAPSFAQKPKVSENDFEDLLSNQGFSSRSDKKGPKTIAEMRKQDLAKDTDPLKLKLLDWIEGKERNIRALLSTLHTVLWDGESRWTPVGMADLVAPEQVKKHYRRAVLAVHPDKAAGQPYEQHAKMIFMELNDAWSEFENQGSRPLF
Chain of Sigma non-opioid intracellular receptor 1 (Q99720 whole entry): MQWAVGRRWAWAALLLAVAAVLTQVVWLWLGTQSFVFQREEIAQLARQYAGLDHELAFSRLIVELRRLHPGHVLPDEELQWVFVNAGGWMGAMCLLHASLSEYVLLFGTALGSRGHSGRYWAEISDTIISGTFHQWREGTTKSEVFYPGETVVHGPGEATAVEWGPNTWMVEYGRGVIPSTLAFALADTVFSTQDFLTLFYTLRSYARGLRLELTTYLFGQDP
Chain of Ephrin type-A receptor 5 (Homo sapiens) (P54756 whole entry): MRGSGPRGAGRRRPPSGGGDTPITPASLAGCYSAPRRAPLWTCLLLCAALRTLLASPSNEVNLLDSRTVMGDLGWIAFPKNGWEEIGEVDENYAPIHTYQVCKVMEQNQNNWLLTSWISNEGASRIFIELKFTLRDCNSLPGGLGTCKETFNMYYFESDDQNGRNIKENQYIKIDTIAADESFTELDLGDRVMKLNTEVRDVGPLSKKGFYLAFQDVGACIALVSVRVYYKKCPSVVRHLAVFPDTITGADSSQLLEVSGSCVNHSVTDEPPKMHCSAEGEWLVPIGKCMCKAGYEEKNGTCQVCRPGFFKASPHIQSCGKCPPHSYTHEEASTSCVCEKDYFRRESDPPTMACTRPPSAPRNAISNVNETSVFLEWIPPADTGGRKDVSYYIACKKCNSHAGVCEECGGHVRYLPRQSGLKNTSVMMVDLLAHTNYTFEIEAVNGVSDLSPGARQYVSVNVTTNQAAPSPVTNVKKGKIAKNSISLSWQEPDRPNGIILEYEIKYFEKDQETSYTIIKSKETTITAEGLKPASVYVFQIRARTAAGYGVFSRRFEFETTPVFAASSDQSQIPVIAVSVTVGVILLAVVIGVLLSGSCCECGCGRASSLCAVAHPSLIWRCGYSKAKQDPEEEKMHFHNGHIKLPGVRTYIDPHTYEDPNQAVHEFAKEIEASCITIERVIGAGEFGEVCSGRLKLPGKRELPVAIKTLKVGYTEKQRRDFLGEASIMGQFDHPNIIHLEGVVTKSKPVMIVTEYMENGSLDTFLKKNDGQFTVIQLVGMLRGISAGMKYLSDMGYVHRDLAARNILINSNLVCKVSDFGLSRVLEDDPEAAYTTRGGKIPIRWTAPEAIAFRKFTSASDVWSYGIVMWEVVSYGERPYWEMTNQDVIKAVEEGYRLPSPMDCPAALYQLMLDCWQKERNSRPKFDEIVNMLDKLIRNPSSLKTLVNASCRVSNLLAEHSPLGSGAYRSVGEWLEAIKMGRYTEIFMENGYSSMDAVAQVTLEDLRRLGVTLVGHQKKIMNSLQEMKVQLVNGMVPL
Chain of cGMP-dependent protein kinase 1 (Homo sapiens) (Q13976 whole entry): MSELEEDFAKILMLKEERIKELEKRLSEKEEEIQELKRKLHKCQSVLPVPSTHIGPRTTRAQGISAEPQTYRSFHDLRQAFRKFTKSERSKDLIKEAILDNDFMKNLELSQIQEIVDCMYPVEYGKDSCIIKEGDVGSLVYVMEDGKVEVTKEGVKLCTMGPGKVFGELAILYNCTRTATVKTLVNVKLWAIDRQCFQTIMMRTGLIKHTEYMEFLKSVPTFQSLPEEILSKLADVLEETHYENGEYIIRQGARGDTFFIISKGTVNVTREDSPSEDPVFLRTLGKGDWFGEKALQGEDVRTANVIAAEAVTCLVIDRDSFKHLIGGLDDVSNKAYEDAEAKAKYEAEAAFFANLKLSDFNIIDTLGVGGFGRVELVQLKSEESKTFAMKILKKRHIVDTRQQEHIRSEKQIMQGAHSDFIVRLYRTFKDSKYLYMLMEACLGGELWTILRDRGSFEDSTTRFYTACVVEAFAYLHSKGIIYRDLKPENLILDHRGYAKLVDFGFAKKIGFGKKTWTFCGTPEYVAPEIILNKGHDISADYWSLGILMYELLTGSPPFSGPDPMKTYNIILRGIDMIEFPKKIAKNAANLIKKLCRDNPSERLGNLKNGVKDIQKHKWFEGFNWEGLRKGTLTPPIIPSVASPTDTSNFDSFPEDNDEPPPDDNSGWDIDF
Chain of Casein kinase II subunit alpha (Homo sapiens) (P68400 whole entry, looked up): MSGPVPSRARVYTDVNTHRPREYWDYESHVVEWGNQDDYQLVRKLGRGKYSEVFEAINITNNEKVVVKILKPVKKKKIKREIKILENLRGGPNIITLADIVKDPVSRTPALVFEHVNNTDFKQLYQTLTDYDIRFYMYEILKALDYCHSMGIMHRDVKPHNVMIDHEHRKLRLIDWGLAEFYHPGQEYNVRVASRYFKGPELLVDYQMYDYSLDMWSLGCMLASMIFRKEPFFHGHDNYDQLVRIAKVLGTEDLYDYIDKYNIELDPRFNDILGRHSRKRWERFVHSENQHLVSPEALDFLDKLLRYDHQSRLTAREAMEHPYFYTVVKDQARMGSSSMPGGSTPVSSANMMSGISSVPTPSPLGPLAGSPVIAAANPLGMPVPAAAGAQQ

CN(C)CC#Cc1ccc(OCCCc2sc(N3CCc4cccc(C(=O)Nc5nc6ccccc6s5)c4C3)nc2C(=O)O)c(F)c1 [A-1155463]
6.87: pKi [1]
inactive: residual activity [2] 99% | residual activity [3] 94% | residual activity [4] 51% | residual activity [5] 80% | residual activity [6] 68% | residual activity [7] 100% | residual activity [8] 100% | residual activity [9] 98% | residual activity [10] 100% | residual activity [11] 100% | residual activity [12] 97% | residual activity [13] 78% | residual activity [14] 75% | residual activity [15] 78% | residual activity [16] 100% | residual activity [17] 93% | residual activity [18] 100% | residual activity [19] 77% | residual activity [20] 84% | residual activity [21] 100% | residual activity [22] 100% | residual activity [23] 100% | residual activity [24] 96% | residual activity [25] 90% | residual activity [26] 100% | residual activity [27] 100% | residual activity [28] 100% | inhibition [29] 34.5% | inhibition [30] 40.8% | inhibition [31] 17.2% | inhibition [32] 12.6%
